Measurements from US20050261332A1, “Sulfonamides and uses thereof” (priority 2004, published 2005).

molecular target: T1, GHS-R (Homo sapiens, UniProt Q92847); test: GHS-R competition binding assay (Ki of GHS-R antagonizing compounds)
T1 construct: expressed in transfected cells; host or cells: COS-7 cells
Protocol: One exemplary binding assay is as follows: GHS-R expressing COS-7 cells cultured at a density of 1×10^5 cells per well so that binding is assayed in the range of about 5-8 % binding of the radioactive ligand. For example, the cells can express an endogenous nucleic acid encoding GHS-R or an exogenous nucleic acid encoding GHS-R. Cells transfected with an exogenous nucleic acid encoding GHS-R can be used, e.g., two days, after transfection. Competition binding experiments are performed for 3 hours at 4° C. using 25 pM of ^125I-ghrelin in 0.5 ml of 50 mM HEPES buffer, pH 7.4, supplemented with 1 mM CaCl2, 5 mM MgCl2, and 0.1% (w/v) bovine serum albumin, 40 mg/ml bacitracin. Non-specific binding can be determined as the binding in the presence of […] of unlabeled ghrelin. Cells are washed twice in 0.5 ml of ice-cold buffer and then lysed with 0.5-1 ml of lysis buffer (8 M Urea, 2% NP40 in 3 M acetic acid). After washing and lysis, the bound radioactivity is counted. Assays can be run in duplicate or triplicate, e.g., to provide statistical power.
Values of the dissociation and inhibition constants (Kd and Ki) can be estimated from competition binding experiments using the equation: Kd=IC50-L and Ki=IC50/(1+L/Kd), where L is the concentration of radioactive ligand. Bmax values can be estimated from competition binding experiments using the equation Bmax=B0 IC50/[ligand], where B0 is the specifically bound radioligand.

T1 sequence (Q92847 whole entry, species assumed): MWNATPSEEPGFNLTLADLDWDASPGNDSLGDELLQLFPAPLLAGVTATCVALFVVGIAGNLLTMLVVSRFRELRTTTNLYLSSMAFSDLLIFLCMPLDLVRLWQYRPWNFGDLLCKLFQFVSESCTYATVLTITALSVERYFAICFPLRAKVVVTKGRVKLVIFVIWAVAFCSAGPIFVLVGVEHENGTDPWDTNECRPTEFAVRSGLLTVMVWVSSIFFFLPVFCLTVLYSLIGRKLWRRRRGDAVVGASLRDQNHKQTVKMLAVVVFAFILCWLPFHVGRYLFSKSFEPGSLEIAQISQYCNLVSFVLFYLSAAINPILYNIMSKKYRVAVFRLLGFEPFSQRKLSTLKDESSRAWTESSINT

Compound	Ki [nM]
CCN(CC)CCS(=O)(=O)N[C@H](CCc1ccccc1)C(=O)c1ccc(-c2ccccc2CNC(=O)OC(C)(C)C)cc1 [Compound 194, (R)-tert-butyl (4′-(2-(2-(diethylamino)ethylsulfonamido)-4-phenylbutanoyl)biphenyl-2-yl)methylcarbamate]	100 to 1000
CCN(CC)CCCS(=O)(=O)N[C@H](CCc1ccccc1)C(=O)NCc1ccc(-c2ccccc2C(N)=O)cc1 [Compound 189, (R)-4′-{[2-(3-Diethylamino-propane-1-sulfonylamino)-4-phenyl-butyrylamino]-methyl}-biphenyl-2-carboxylic acid amide]	< 100
CCN(CC)CCCS(=O)(=O)N(C)[C@H](COCc1ccccc1)C(=O)N1CCC2(CC1)CN(S(C)(=O)=O)c1ccccc12 [Compound 160, (R)-N-(3-(benzyloxy)-1-(1-(methylsulfonyl)spiro[indoline-3,4′-piperidine]-1′-yl)-1-oxopropan-2-yl)-3-(diethylamino)-N-methylpropane-1-sulfonamide]	< 100
CS(=O)(=O)N1CC2(CCN(C(=O)[C@@H](CCCc3ccccc3)NS(=O)(=O)CCCN=[N+]=[N-])CC2)c2ccccc21 [Compound 220, (R)-3-azido-N-(1-(1-(methylsulfonyl)spiro[indoline-3,4′-piperidine]-1′-yl)-1-oxo-5-phenylpentan-2-yl)propane-1-sulfonamide]	100 to 1000
CC(C)NCCS(=O)(=O)N[C@H](COCc1ccccc1)C(=O)N1CCC2(CC1)CN(S(C)(=O)=O)c1ccccc12 [Compound 140, (R)-N-(3-(benzyloxy)-1-(1-(methylsulfonyl)spiro[indoline-3,4′-piperidine]-1′-yl)-1-oxopropan-2-yl)-2-(isopropylamino)ethanesulfonamide]	> 1000
CC(C)(C)NCCS(=O)(=O)N[C@H](COCc1ccccc1)C(=O)N1CCC2(CC1)CN(S(C)(=O)=O)c1ccccc12 [Compound 139, (R)-N-(3-(benzyloxy)-1-(1-(methylsulfonyl)spiro[indoline-3,4′-piperidine]-1′-yl)-1-oxopropan-2-yl)-2-(tert-butylamino)ethanesulfonamide]	100 to 1000
(R)-N-(3-(benzyloxy)-1-(1-(methylsulfonyl)spiro[indoline-3,4′-piperidine]-1′-yl)-1-oxopropan-2-yl)-3-isosulfonylazolidine [Compound 151]	100 to 1000
CCN(CC)CCCS(=O)(=O)N[C@@H](COCc1ccccc1)C(=O)N1CCC2(CC1)CN(S(C)(=O)=O)c1ccccc12 [Compound 210, (S)-N-(3-(benzyloxy)-1-(1-(methylsulfonyl)spiro[indoline-3,4′-piperidine]-1′-yl)-1-oxopropan-2-yl)-3-(diethylamino)propane-1-sulfonamide]	100 to 1000
CCOC(=O)c1ccccc1-c1ccc(C(=O)[C@@H](CCc2ccccc2)NS(=O)(=O)CCCN(CC)CC)cc1 [Compound 184, (R)-ethyl 4′-(2-(3-(diethylamino)propylsulfonamido)-4-phenylbutanoyl)biphenyl-2-carboxylate]	> 1000
CCN(CC)CCS(=O)(=O)N[C@H](CCc1ccccc1)C(=O)c1ccc(-c2ccccc2CNC(=O)NCCO)cc1 [Compound 201, (R)-2-(diethylamino)-N-(1-(2′-((3-(2-hydroxyethyl)ureido)methyl)biphenyl-4-yl)-1-oxo-4-phenylbutan-2-yl)ethanesulfonamide]	< 100
CS(=O)(=O)N1CC2(CCN(C(=O)[C@@H](COCc3ccccc3)NS(=O)(=O)CCN3CCCCC3)CC2)c2ccccc21 [Compound 135, (R)-N-(3-(benzyloxy)-1-(1-(methylsulfonyl)spiro[indoline-3,4′-piperidine]-1′-yl)-1-oxopropan-2-yl)-2-(piperidin-1-yl)ethanesulfonamide]	100 to 1000
CCN(CC)CCCS(=O)(=O)N[C@H](CCc1ccccc1)C(=O)NCc1ccc(-c2ccccc2C(=O)NC)cc1 [Compound 179, (R)-4′-{[2-(3-Diethylamino-propane-1-sulfonylamino)-4-phenyl-butyrylamino]-methyl}-biphenyl-2-carboxylic acid methylamide]	100 to 1000
CCN(CC)CCCS(=O)(=O)N[C@H](CCc1ccccc1)C(=O)c1ccc(-c2ccccc2CCNC(=O)NC)cc1 [Compound 185, (R)-3-(diethylamino)-N-(1-(2′-(2-(3-methylureido)ethyl)biphenyl-4-yl)-1-oxo-4-phenylbutan-2-yl)propane-1-sulfonamide]	< 100
CS(=O)(=O)N1CC2(CCN(C(=O)[C@@H](COCc3ccccc3)NS(=O)(=O)CCCCl)CC2)c2ccccc21 [Compound 146, (R)-N-(3-(benzyloxy)-1-(1-(methylsulfonyl)spiro[indoline-3,4′-piperidine]-1′-yl)-1-oxopropan-2-yl)-3-chloropropane-1-sulfonamide]	< 100
CCN(CC)CCCS(=O)(=O)N[C@H](COCc1ccccc1)C(=O)c1ccc(-c2ccccc2C(N)=O)cc1 [Compound 177, (R)-4′-[3-Benzyloxy-2-(3-diethylamino-propane-1-sulfonylamino)-propionyl]-biphenyl-2-carboxylic acid amide]	100 to 1000
CCN(CC)CCCS(=O)(=O)N[C@H](CCc1ccccc1)C(=O)NCc1ccc(-c2ccccc2CC(=O)NC)cc1 [Compound 181, (R)-2-(3-(diethylamino)propylsulfonamido)-N-((2′-(2-(methylamino)-2-oxoethyl)biphenyl-4-yl)methyl)-4-phenylbutanamide]	100 to 1000
CCN(CC)CCCS(=O)(=O)N[C@H](CCc1ccccc1)C(=O)c1ccc(-c2ccccc2C(=O)O)cc1 [Compound 183, (R)-4′-(2-(3-(diethylamino)propylsulfonamido)-4-phenylbutanoyl)biphenyl-2-carboxylic acid]	100 to 1000
CCNC(=O)NCc1ccccc1-c1ccc(CNC(=O)[C@@H](CCc2ccccc2)NS(=O)(=O)CCCN(CC)CC)cc1 [Compound 193, (R)-2-(3-(diethylamino)propylsulfonamido)-N-((2′-((3-ethylureido)methyl)biphenyl-4-yl)methyl)-4-phenylbutanamide]	< 100
COCCCS(=O)(=O)N[C@H](COCc1ccccc1)C(=O)N1CCC2(CC1)CN(S(C)(=O)=O)c1ccccc12 [Compound 159, (R)-N-(3-(benzyloxy)-1-(1-(methylsulfonyl)spiro[indoline-3,4′-piperidine]-1′-yl)-1-oxopropan-2-yl)-3-methoxypropane-1-sulfonamide]	100 to 1000
CCN(CC)CCCS(=O)(=O)N[C@H](COCc1ccccc1)C(=O)c1ccc(-c2ccccc2C#N)cc1 [Compound 178, (R)-N-(3-(benzyloxy)-1-(2′-cyanobiphenyl-4-yl)-1-oxopropan-2-yl)-3-(diethylamino)propane-1-sulfonamide]	100 to 1000
CCN(CC)CCS(=O)(=O)N[C@H](CCc1ccccc1)C(=O)c1ccc(-c2ccccc2CCNC(=O)NC)cc1 [Compound 212, (R)-2-(diethylamino)-N-(1-(2′-(2-(3-methylureido)ethyl)biphenyl-4-yl)-1-oxo-4-phenylbutan-2-yl)ethanesulfonamide]	< 100
CCN(CC)CCS(=O)(=O)N[C@H](CCc1ccccc1)C(=O)c1ccc(-c2ccccc2CN)cc1 [Compound 203, (R)-N-(1-(2′-(aminomethyl)biphenyl-4-yl)-1-oxo-4-phenylbutan-2-yl)-2-(diethylamino)ethanesulfonamide]	100 to 1000
CCN(CC)CCCS(=O)(=O)N[C@H](COCc1ccccc1)C(=O)c1ccc(-c2ccccc2NC(=O)NC)cc1 [Compound 176, (R)-N-(3-(benzyloxy)-1-(2′-(3-methylureido)biphenyl-4-yl)-1-oxopropan-2-yl)-3-(diethylamino)propane-1-sulfonamide]	100 to 1000
CN1CCC(S(=O)(=O)N[C@H](COCc2ccccc2)C(=O)N2CCC3(C=Cc4ccccc43)CC2)CC1 [Compound 147, (R)-N-(3-(benzyloxy)-1-oxo-1-(spiro[indene-1,4′-piperidine]-1′-yl)propan-2-yl)-1-methylpiperidine-4-sulfonamide]	100 to 1000
CCN(CC)CCS(=O)(=O)N[C@H](CCc1ccccc1)C(=O)c1ccc(-c2ccccc2C(N)=O)cc1 [Compound 218, (R)-4′-(2-(2-(diethylamino)ethylsulfonamido)-4-phenylbutanoyl)biphenyl-2-carboxamide]	> 1000
CCN(CC)CCCS(=O)(=O)N[C@H](COCc1ccccc1)C(=O)NCc1ccc(-c2ccccc2C#N)cc1 [Compound 158, (R)-3-Benzyloxy-N-(2′-cyano-biphenyl-4-ylmethyl)-2-(3-diethylamino-propane-1-sulfonylamino)-propionamide]	< 100
CCN(CC)CCCS(=O)(=O)N[C@H](CCc1ccccc1)C(=O)c1ccc(-c2ccccc2C(=O)NC)cc1 [Compound 186, (R)-4′-(2-(3-(diethylamino)propylsulfonamido)-4-phenylbutanoyl)-N-methylbiphenyl-2-carboxamide]	100 to 1000
CCN(CC)CCCS(=O)(=O)N[C@H](COCc1ccccc1)C(=O)NCc1ccc(-c2ccccc2-c2noc(=S)[nH]2)cc1 [Compound 162, (R)-3-Benzyloxy-2-(3-diethylamino-propane-1-sulfonylamino)-N-[2′-(5-thioxo-4,5-dihydro-[1,2,4]oxadiazol-3-yl)-biphenyl-4-ylmethyl]-propionamide]	< 100
